Data published in patent US20170261507A1, “Methods for Predicting and Monitoring Cancer Patients' Response to Teatment by Measuring Myeloid Derived Suppressor Cells (MDSCs)” (YISSUM RESEARCH DEVELOPMENT COMPANY OF THE HEBREW …, priority 2014, published 2017).

Legend:
[1] = tested on: MDSCs; assay: BCG chronic inflammation mouse model: MDSC levels; type: in vivo; conditions: PBLs and spleen, compared to inflamed-untreated mice
Protocol: (§1) Mice were injected intraperitoneally with 10 mg/kg body weight of Azoxymethan (AOM, purchased from Sigma-Aldrich (St. Louis, Mo., USA)) dissolved in physiological saline twice in two weeks intervals. Two weeks later, 2% dextran sulfate sodium (DSS, purchased from MP biochemicals Inc. (Santa Ana, Calif., USA)) was given in the drinking water over 7 days, followed by 14 days of regular water (15). This cycle was repeated twice. Animals were sacrificed and analyzed three weeks after the last treatment. To induce a pathology-free chronic inflammation, a previously described protocol subjecting mice to heat-killed Mycobacterium […] (BCG) treatment (16) was used.
(§2) Next, the immunoregulatory effects of 5FU and CPT11 were examined in a mouse model for chronic inflammation and associated immunosuppression (10), as described in the materials and method section above and in FIG. 13A. This experiment was performed in order to investigate whether the differential effects of the drugs are related to the presence of the tumor. Briefly, the mouse model for chronic inflammation was established by three repeated injections of heat-killed BCG bacteria. A day after the second BCG injection, mice were treated twice a week with 5FU, CPT11 or a 5FU/CPT11 combination. […] No changes in CD4^+Foxp3^+ Tregs percentage were detected (FIG. 13H), confirming that these chemotherapies specifically affect MDSCs.

[2] = tested on: CRC-mice
[3] = tested on: CD247; assay: CD247 expression in T-cells of CRC-mice; type: in vivo, mouse; conditions: splenocytes of CRC-mice
Protocol: (§3) Next, the effect of the given chemotherapies on the immune status was evaluated. This was performed by testing the function of the whole T-cell population (FIG. 9J) as well as the CD8^+ T-cells (FIG. 9K) in all experimental groups along with measurements of the expression levels of CD247 in CD3^+ (FIG. 9L) and in CD8^+ T-cells (FIG. 9M). T-cell proliferative response was assessed by monitoring cell divisions of gated CFSE-labeled Thy1.2^+ (CD90^+) T-cells upon TCR-CD28 mediated activation.

[4] = tested on: S100A8/9; conditions: MDSCs from spleen of CRC-mice
[5] = tested on: T-cells; assay: CFSE T-cell proliferation assay, splenocytes of CRC-mice; type: in vivo, mouse; conditions: CFSE-labeled Thy1.2^+ T-cells, TCR-CD28 mediated activation, vs untreated CRC-mice
Protocol: as §3, with “Splenocytes or purified T-cells isolated by a magnetic column separation system (Miltenyi Biotec) were labeled with […] CFSE (Invitrogen) and subjected to TCR-mediated activation as previously described (16). Next,” for “Next,”

[6] = tested on: MDSCs; assay: Myeloid cell differentiation in vivo in CRC-mice
[7] = tested on: Gr1^+CD11b^+ MDSCs; assay: MDSC accumulation in colon, spleen and PBLs of CRC-mice; type: in vivo, mouse
[8] = tested on: MDSCs isolated from spleens of CRC-mice; assay: NO^− and ROS production in ex vivo cultured MDSCs; type: cell-based, mouse; conditions: 2.5 μmol/L, 24 h
[9] = tested on: cleaved caspase-3; assay: Cleaved caspase-3 in splenic MDSCs of treated CRC-mice; type: in vivo, mouse
[10] = tested on: CRC-derived MDSC; assay: Ex vivo GM-CSF mediated myeloid-cell differentiation; type: cell-based, mouse; conditions: 10 ng/ml GM-CSF, 72 h, vs GM-CSF only
[11] = tested on: MDSCs; assay: NO^− and ROS production by MDSCs of treated CRC-mice (flow cytometry); type: in vivo, mouse
[12] = tested on: β-catenin; assay: β-catenin immunohistochemistry of colons of CRC-mice; type: in vivo, mouse
[13] = tested on: MDSCs isolated from spleens of CRC mice; assay: Cleaved caspase-3 in ex vivo cultured MDSCs, DCs and macrophages; type: cell-based, mouse; conditions: ex vivo, various doses, 3 days, dose-dependent
[14] = tested on: MDSCs; assay: BCG chronic inflammation mouse model: ROS and NO^− production by MDSCs; type: in vivo; conditions: splenic MDSCs, compared to inflamed-untreated mice
Protocol: as §1, §2

[15] = tested on: TNFα, S100A9; assay: TNFα and S100A9 mRNA in ex vivo cultured MDSCs (Real Time PCR); type: cell-based, mouse; conditions: 3 days
[16] = tested on: CRC-mice; assay: Vitality and survival of CRC-mice; type: in vivo, mouse; conditions: daily recorded, compared to 5FU, CPT11 treated MDSC depleted or untreated CRC-mice
Protocol: Therefore, MDSC depletion could reduce the harmful effect of CPT11 on the immune status, and thereby enhance the anti-tumor effect. CRC-mice were subjected to either 5FU, CPT11 or a 5FU/CPT11 combination starting at week eight, or were untreated. At the same day of the second DSS administration, CPT11-treated CRC-mice were randomly separated into two groups; one group continued with CPT11 treatment while the second group was treated with anti-Gr1 mAb for MDSC depletion in addition to CPT11 treatment. Three weeks after the second DSS treatment mice were sacrificed and PBLs (FIG. 10B) and colons (FIG. 10C) were analyzed. […] This pattern indicates a beneficial effect of 5FU that attenuates CRC progression with a harmful contribution of CPT11, supporting immunosuppression and tumor progression via its effects on MDSCs.

CCc1c2c(nc3ccc(OC(=O)N4CCC(N5CCCCC5)CC4)cc13)-c1cc3c(c(=O)n1C2)COC(=O)[C@]3(O)CC [CPT11, Irinotecan]
MDSC levels [1]: induced opposite effects | spleen size (inflammatory response) ([2]; compared to 5FU treated CRC- or control-mice): enlarged spleen size | tumor load within the colon (hematoxylin-eosin histopathology) ([2]; monotherapy for three weeks, vs untreated CRC mice): no apparent differences in tumor loads | histopathological analysis of colon sections (hematoxylin-eosin) ([2]; three weeks after second DSS treatment): differentiated adenocarcinoma | histological analyses of colons ([2]; treated CRC-mice): not only a loss of entire crypts and surface epithelial layer, but also a massive leukocyte infiltration into the mucosa | CD247 expression levels in T-cells [3]: low CD247 levels | S100A8/9 mRNA and protein levels [4]: increased S100A8/9 levels | T-cell proliferative ability [5]: decreased T-cell proliferative ability | myeloid cell differentiation in vivo (DCs and macrophages) [6]: blocked myeloid cell differentiation | MDSCs within the colon (immunohistochemical probing) ([7]; anti-Gr-1 staining): elevated levels of the cells | MDSC numbers / infiltration in colon ([7]; lamina propria and epithelium, flow cytometry, vs untreated CRC-mice): increased MDSC numbers | NO^− and ROS production in monocytic and granulocyte MDSC populations [8]: increased NO^− (FIG. 9H) and ROS (FIG. 9I) production | NO^− or ROS production in purified cultured MDSCs [8]: resulted in their elevation | cleaved caspase-3 expression in spleen MDSCs [9]: decreased cleaved caspase-3 levels | GM-CSF mediated CRC-derived MDSC differentiation [10]: prevented cell differentiation | NO^− production ([11]; lamina propria and epithelial MDSCs, vs untreated CRC mice): NO^− levels remained elevated | NO^− and ROS production ([11]; splenic MDSCs, compared to untreated CRC-mice): elevated levels | β-catenin localization in CRC colons [12]: massive β-catenin accumulation in the nuclei of tumor cells | cleaved caspase-3 in purified cultured MDSCs [13]: not CPT11 leads to cleaved caspase-3 up-regulation | ROS and NO^− production [14]: induced opposite effects | mRNA levels of TNFα and S100A9 [15]: increased mRNA levels | vitality and survival of the mice [16]: increased death rates
